# Literature values as cited in US20030195350A1, “Individualization of therapy with antiviral agents” (priority 2001, published 2003).
# Where two headings read alike, the source gives them in different places.
# Legend:
# [1] = system: HIV isolates; conditions: one ZDV-resistant HIV isolate in vitro; cited from earlier work
# [2] = system: HIV; conditions: cited from earlier work
# [3] = system: HIV-1; conditions: cited from earlier work
# [4] = cited from earlier work; for AUC (mean±SD): single 600 mg dose, non-fasting
# [5] = in vivo; cited from earlier work
# [6] = in vivo; cited from earlier work; remark: listed apart in the source
smiles,measurement,setting,value
"CC(C)c1nc(CN(C)C(=O)N[C@H](C(=O)N[C@@H](Cc2ccccc2)C[C@H](O)[C@H](Cc2ccccc2)NC(=O)OCc2cncs2)C(C)C)cs1 (relative stereo) [ritonavir, 10-Hydroxy-2-methyl-5-(1-methylethyl)-1-[2-(1-methylethyl)-4-thiazolyl]-3,6-dioxo-8,11-bis(phenylmethyl)-2,4,7,12-tetraazatridecan-13-oic acid, 5-thiazolylmethyl ester, [5S-(5R*,8R*,10R*,11R*)]]",susceptibility of ZDV-resistant HIV isolate,[1],retained full susceptibility
same,cumulative incidence of clinical disease progression or death,"[2]; double-blind phase of Study 247, 600 mg b.i.d.",26%
same,cumulative mortality,"[2]; through end of open-label follow-up phase, Study 247",18%
same,effect against HIV-1 in combination,"[3]; MT 4 cells, with either zidovudine (ZDV) or didanosine (ddI)",additive effects
same,EC50,"[3]; read-out: average EC50, low passage clinical isolates (n=13)",22 nM
same,"steady-state oral clearance (CL/F/m^2), pediatric vs adult",[4]; HIV-infected individuals ages 2 to 14 years,approximately 1.5 times
same,dose excreted in the feces,"[4]; in vivo, po",86.4±2.9 % of the dose
same,dose excreted in the feces as unchanged parent drug,"[4]; in vivo, po",33.8±10.8 % of the dose
same,dose excreted into the urine,"[4]; in vivo, po",11.3±2.8 % of the dose
same,dose excreted into the urine as unchanged parent drug,"[4]; in vivo, po",3.5±1.8 % of the dose
same,effect of dilution of oral solution on extent and rate of absorption,"[4]; in vivo, po",did not significantly affect
same,renal clearance,[4]; in vivo,negligible
same,AUC (mean±SD),[4]; oral solution (n=18),129.0 ± 39.3 µg·h/mL
same,AUC (mean±SD),[4]; soft gelatin capsule (n=57),121.7 ± 53.8 µg·h/mL
same,Adverse event: Depression,[5],1.7%
same,Adverse event: Diarrhea,[5],15.4%
same,Adverse event: Fecal Incontinence,[5],0.0%
same,Adverse event: Vasodilation,[5],1.7%
same,Adverse event: Depression,[6],1.7%
same,Adverse event: Fecal Incontinence,[6],0.0%
same,Adverse event: Vasodilation,[6],1.7%
